Experimental data taken from article PMC8641662 (Frontiers in Plant Science, 2021).

Columns and labels:
red clover HDT1 = red clover HDT1 (Trifolium pratense, UniProt A0A384ZRD3); test: Determination of kinetic parameters of HDT (initial rates by release of free CoA, DTNB, purified histidine-tagged HDT1); details: for kcat / Km: variable acceptor substrate; for Km: pH 8.0, 25°C
Description: Kinetic parameters for HDT were determined by measuring initial reaction rates by release of free CoA in real time using DTNB [5,5′-dithio-bis-(2-nitrobenzoic acid)] and spectroscopy as detailed elsewhere ([Sullivan and Bonawitz, 2018]). Measurements were made in a temperature-controlled spectrophotometer at 25°C. Reactions were carried out in 100mM sodium phosphate, 1mM EDTA, pH 8.0. Acceptor substrates were prepared in 1N HCl as 66.7×stock solutions, so an equal amount of 1N NaOH was added to reactions to neutralize the HCl (15mM final). Substrate and enzyme amounts used are detailed in Table 2.
All kinetic data analyses were carried out using GraphPad Prism version 7 or higher for Mac OS (GraphPad Software, La Jolla, CA, United States). Each analysis (i.e., series of substrate concentrations) was carried out in duplicate on different days with freshly prepared substrate and enzyme dilutions. Data were analyzed by non-linear regression of the replicated data. […] Kinetic parameters are reported±standard error (SE) as determined from the non-linear regression.
More limited analyses (explained below) were carried out with L-Phe and L-Leu acceptor substrates.

red clover HDT (HDT1) = test: In vitro hydroxycinnamoyl-CoA transferase activity assay with crude E. coli extracts containing recombinant HDT, products by HPLC with PDA and MS; format: biochemical, red clover (Trifolium pratense L.); details: p-coumaroyl-, caffeoyl- or feruloyl-CoA donor; HPLC with PDA and MS detection
Description: General in vitro reactions for hydroxycinnamoyl-CoA transferase activity contained 100mM sodium phosphate buffer (pH 7.5), 25 to 50mM ascorbate, 1 to 2mM p-coumaroyl-, caffeoyl-, or feruloyl-CoA donor substrate, 1 to 6mM acceptor substrate (L-amino acids, shikimic acid, or malic acid), and red clover leaf or E. coli extract. When red clover extract was the enzyme source, reaction head space was exchanged for nitrogen to prevent oxidation of caffeoyl and L-DOPA moieties by endogenous PPO. Reactions were incubated at 30°C for up to 1h prior to being stopped by the addition of one-fifth volume of 10% formic acid. Precipitated protein was removed by centrifugation (17,000×g for 5min at room temperature) and the supernatant analyzed for reaction products by HPLC as described above.
Crude E. coli extracts containing the recombinant proteins were incubated with hydroxycinnamoyl-CoAs and acceptors, and the reactions were analyzed by HPLC with PDA and MS detection. […] In the case of caffeoyl-L-Tyr and caffeoyl-L-DOPA, where authentic compound was available for purchase, the in vitro-formed products were indistinguishable from the purchased standards in terms of retention time, UV absorption spectrum, and (m/z). For caffeoyl-L-Tyr, we also produced sufficient compound via an HDT1-mediated reaction to carry out ^1H and ^13C NMR to further confirm product identity (Supplementary Figure S2). Chemical shifts were consistent with those previously published for this compound ([Stark and Hofmann, 2005]). […] We only tested L-amino acids with HDT1, since this is what is present in clovamide and what is most abundantly present in nature. […] In this case, ability of the D-amino acid substrates to serve as acceptor substrates could be due to their structural (including stereochemistry) similarity to the D-phenyllactic acid acceptor also used by this enzyme.

[1] = substrate: N[C@@H](Cc1ccc(O)c(O)c1)C(=O)O; test: purified protein, by the assay type; details: other: variable acceptor substrate, pH 8.0, 25°C
[2] = substrate: N[C@@H](Cc1ccc(O)cc1)C(=O)O; test: purified protein, by the assay type; details: other: variable acceptor substrate, pH 8.0, 25°C
[3] = constant substrate FA-CoA (20μM)
[4] = constant substrate p-CA-CoA (20μM)
[5] = constant substrate CA-CoA (50μM)

In the case of N[C@@H](Cc1ccc(O)c(O)c1)C(=O)O [L-DOPA, L-3,4-dihydroxyphenlylalanine], the kcat (red clover HDT1; [3]) is reported as 0.75 ± 0.015 s⁻¹, the kcat (red clover HDT1; [4]) is reported as 2.00 ± 0.022 s⁻¹ and the “Use as acceptor substrate (product formation with hydroxycinnamoyl-CoA donors)” value (shortened to “Use as acceptor substrate”) (red clover HDT (HDT1)) is reported as “capable of transferring”.

For CC(C)C[C@H](N)C(=O)O [L-Leu, L-leucine], the Km (red clover HDT1; [5]) was > 10000 µM and the “Use as acceptor substrate” value (red clover HDT (HDT1)) was “can also serve as acceptors”.

For N[C@@H](Cc1ccccc1)C(=O)O [L-Phe, L-phenylalanine], the Km (red clover HDT1; [5]) was > 10000 µM and the “Use as acceptor substrate” value (red clover HDT (HDT1)) was “capable of transferring”.

Molecule N[C@@H](Cc1c[nH]c2ccccc12)C(=O)O [L-Trp, L-tryptophan] has a kcat (red clover HDT1; [5]) of 1.21 ± 0.007 s⁻¹, a Km (red clover HDT1; [5]) of 1250 ± 26.7 µM and a kcat (red clover HDT1; [3]) of 0.35 ± 0.007 s⁻¹. The Km (red clover HDT1; [3]) was 273 ± 24.1 µM, the kcat (red clover HDT1; [4]) was 1.00 ± 0.009 s⁻¹ and the Km (red clover HDT1; [4]) was 2160 ± 63.4 µM. For the same molecule, the “Use as acceptor substrate” value (red clover HDT (HDT1)) was “can also serve as acceptors”.

In the case of N[C@@H](Cc1ccc(O)cc1)C(=O)O [L-Tyr, L-tyrosine], the “catalytic efficiency, fold higher compared to L-DOPA as acceptor” value (red clover HDT1; acceptor substrate comparison) is reported as “about 10 fold” and the “Use as acceptor substrate” value (red clover HDT (HDT1)) is reported as “capable of transferring”.

For N=C(N)NCCC[C@H](N)C(=O)O [arginine], the “Use as acceptor substrate” value (red clover HDT (HDT1)) was “no product was detected”.

O=C(O)CC(O)C(=O)O (stereo not shown) [malic acid] was tested, and the “Use as acceptor substrate” value (red clover HDT (HDT1)) was “No reaction products were seen”.

With NCCc1ccc(O)cc1 [tyramine] the “Use as acceptor substrate” value (red clover HDT (HDT1)) was “no reaction products were seen”.

B1: red clover HDT1 (Trifolium pratense) (protein)
chain: MVTIIASHTVIPEEPTPQGPFWLSDMDQVVRIRDVPTLYIYKTPKKNQENKNIVETFKNSLSKILVHYYPIAGRLCYIEGGRLELNLNAKGAILVEAETEKTMNDYGDFSHFDTIKELVPMIDYNQPIEEIPNFVVQLTNFKNNEGFAIGVAFLHPLSDGLGAIKFINSWAKIARGETLEANELPFLDRKLLKFSHTPLEPRFEHLELKPLPLILGRKDASEEKEKKTSATLLKLSSEQVDKLKKKANEEDVLGIQKKEYSRPYSKFEVISAHIWRCASKARELEDNQESVIRFIADVKNRMIPPLPKNYFGNALTQTATKGYIGEITSKPLGYVAQKIREATELINDEYIRSQIDVVRSFEHLDDARKMFIGEKARYFGNPNFNLTSWLSMPVYEADFGWGKPNYFGLADVSPHDRAVILLSPDDDGSVLVSFHFQIAHMELFNKYFYEEI
For B1, the Km [1, 5] was 2465.0 ± 65.88 µM, the Km [1, 3] was 150.0 ± 7.65 µM and the Km [1, 4] was 989.8 ± 35.92 µM. The Km [2, 5] was 342.0 ± 14.37 µM, the kcat [2, 5] was 9.12 ± 0.114 s⁻¹ and the kcat/Km [2, 5] was 26700 ± 1170 M⁻¹ s⁻¹. For the same molecule, the Km [2, 3] was 14.4 ± 0.64 µM, the kcat [2, 3] was 0.69 ± 0.006 s⁻¹ and the kcat/Km [2, 3] was 47900 ± 2160 M⁻¹ s⁻¹. It also gave a Km [2, 4] of 145.3 ± 5.56 µM, a kcat [2, 4] of 2.74 ± 0.027 s⁻¹ and a kcat/Km [2, 4] of 18900 ± 750 M⁻¹ s⁻¹.
